Here are results for 23 compounds from patent US7560466B2, “Methods of treating or preventing autoimmune diseases with 2,4-pyrimidinediamine compounds” (Rigel Pharmaceuticals, Inc., priority 2003, dated 2009).

The test system of assay [1] is cultured human mast cells (CHMC), IgE-induced degranulation. In words: CHMC low cell density IgE activation: tryptase assay. It counts as cell-based. Conditions: low cell density CHMC. The method in brief: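 Cord-blood CD34+-derived mucosal mast cells (SCF/IL-6 medium), 1000–1500 cells/well, preincubated with compound 1 h at 37°C, then anti-IgE stimulated 30 min at 37°C.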

Assay [2] relates to cultured human mast cells (CHMC), ionomycin-induced degranulation. In words: CHMC low cell density ionomycin activation: tryptase assay. The format is cell-based. Particulars: low cell density CHMC, read-out: LD Tryptase, CHMC, Iono, 3pt.
Where [3] appears, read: 3-point, read-out: LD Tryptase, CHMC, IgE, 3pt.
Setting [4] is: 8-point, read-out: LD Tryptase, CHMC, IgE, 8pt.
[5] abbreviates: 3pt, read-out: LD Tryptase, CHMC, IgE, 3pt.
Where [6] appears, read: 8pt, read-out: LD Tryptase, CHMC, IgE, 8pt.
Setting [7] is: ionomycin activation (2 μM final), 3pt.
Where [8] appears, read: Homo sapiens, Mast cell, 8pt, read-out: LD Tryptase, CHMC, IgE, 8pt.
Setting [9] is: Homo sapiens, Mast cell, ionomycin activation (2 μM final), 3pt.

Structures can show the parent of a compound that is named as a salt. Where two headings read alike, the source gives them in different places.

As for `CNC(=O)COc1c(C)cc(Nc2ncc(F)c(Nc3ccc4c(n3)NC(=O)C(C)(C)O4)n2)cc1C` [Compound 1041, N2-[3,5-Dimethyl-4-(N-methylamino)carbonylmethyleneoxyphenyl]-N4-(2,2-dimethyl-3-oxo-4H-5-pyrid[1,4]oxazin-6-yl)-5-fluoro-2,4-pyrimidinediamine], the IC50 in assay [1] (setting [3]) was below 10 µM; in assay [1] (setting [4]) it was below 10 µM; in assay [2] (ionomycin activation, 3-point), below 10 µM.
Turning to `CCOC(=O)COc1c(C)cc(Nc2ncc(F)c(Nc3ccc4c(n3)NC(=O)C(C)(C)O4)n2)cc1Cl` [Compound 1042, N2-(3-Chloro-4-ethoxycarbonylmethyleneoxy-5-methylphenyl)-N4-(2,2-dimethyl-3-oxo-4H-5-pyrid[1,4]oxazin-6-yl)-5-fluoro-2,4-pyrimidinediamine], the IC50 in assay [1] (setting [3]) is above 10 µM; in assay [2] (ionomycin activation, 3-point), above 10 µM.
In the case of `Cc1cc(Nc2ncc(F)c(Nc3ccc4c(n3)NC(=O)C(C)(C)O4)n2)cc(Cl)c1OCC(=O)NCC(O)CO` (centres unmarked) [Compound 1043, N2-[3-Chloro-4-[N-(2,3-dihydroxypropyl)amino]carbonylmethyleneoxy-5-methylphenyl]-N4-(2,2-dimethyl-3-oxo-4H-5-pyrid[1,4]oxazin-6-yl)-5-fluoro-2,4-pyrimidinediamine], the IC50 in assay [1] (setting [3]) was below 10 µM; in assay [1] (setting [4]), below 10 µM; in assay [2] (ionomycin activation, 3-point) it was above 10 µM.
On to `Cc1cc(Nc2ncc(F)c(Nc3ccc4c(n3)NC(=O)C(C)(C)O4)n2)cc(C)c1OCC(=O)NC1CCCC1` [Compound 1044, N2-[3,5-Dimethyl-4-(N-cyclopentylamino)carbonylmethyleneoxyphenyl]-N4-(2,2-dimethyl-3-oxo-4H-5-pyrid[1,4]oxazin-6-yl)-5-fluoro-2,4-pyrimidinediamine], for which the IC50 is above 10 µM in assay [1] (setting [3]); above 10 µM in assay [1] (setting [4]); above 10 µM in assay [2] (ionomycin activation, 3-point).
Regarding `CNC(=O)COc1cccc(Nc2ncc(F)c(Nc3ccc4c(c3)NC(=O)C(F)(F)O4)n2)c1` [Compound 1045, N4-(2,2-Difluoro-3-oxo-4H-benz[1,4]oxazin-6-yl)-5-fluoro-N2-[3-(N-methylamino)carbonylmethyleneoxyphenyl]-2,4-pyrimidinediamine Hydrogen Chloride Salt], the IC50 was below 10 µM in assay [1] (setting [3]); below 10 µM in assay [1] (setting [4]); above 10 µM in assay [2] (ionomycin activation, 3-point).
With `CNC(=O)COc1cccc(Nc2ncc(F)c(Nc3ccc4c(c3)NC(=O)C(F)(F)O4)n2)c1` [Compound 1046, N4-(2,2-Difluoro-3-oxo-4H-benz[1,4]oxazin-6-yl)-5-fluoro-N2-[3-(N-methylamino)carbonylmethyleneoxyphenyl]-2,4-pyrimidinediamine Methanesulfonic Acid Salt], the IC50 in assay [1] (setting [3]) was below 10 µM; in assay [1] (setting [4]), below 10 µM; in assay [2] (ionomycin activation, 3-point), above 10 µM.
Consider `CCn1ncc2ccc(Nc3ncc(F)c(Nc4ccc5c(n4)NC(=O)C(C)(C)O5)n3)cc21` [Compound 1049, N4-(2,2-Dimethyl-3-oxo-4H-5-pyrid[1,4]oxazin-6-yl)-N2-(1-ethylindazol-6-yl)-5-fluoro-2,4-pyrimidinediamine], for which the IC50 in assay [1] (setting [3]) was below 10 µM; in assay [1] (setting [4]), below 10 µM; in assay [2] (ionomycin activation, 3-point) it was above 10 µM.
Take `CC(C)n1ncc2ccc(Nc3ncc(F)c(Nc4ccc5c(n4)NC(=O)C(C)(C)O5)n3)cc21` [Compound 1050, N4-(2,2-Dimethyl-3-oxo-4H-5-pyrid[1,4]oxazin-6-yl)-N2-(1-isopropylindazol-6-yl)-5-fluoro-2,4-pyrimidinediamine]: the IC50 in assay [1] (setting [3]) was below 10 µM; in assay [1] (setting [4]), below 10 µM; in assay [2] (ionomycin activation, 3-point), above 10 µM.
As for `CC1(C)CNc2nc(Nc3nc(Cl)ncc3F)ccc2O1` [Compound 1051, 2-Chloro-N4-(3,4-dihydro-2,2-dimethyl-4H-5-pyrid[1,4]oxazin-6-yl)-5-fluoro-4-pyrimidinea mine], the IC50 in assay [1] (setting [3]) is above 10 µM; in assay [2] (ionomycin activation, 3-point) it was above 10 µM.
On to `Cn1ncc2ccc(Nc3ncc(F)c(Nc4ccc5c(n4)NCC(C)(C)O5)n3)cc21` [Compound 1052, N4-(3,4-Dihydro-2,2-dimethyl-4H-5-pyrid[1,4]oxazin-6-yl)-5-fluoro-N2-(1-methylindazol-6-yl)-2,4-pyrimidinediamine], for which the IC50 in assay [1] (setting [3]) is below 10 µM; in assay [1] (setting [4]), below 10 µM; in assay [2] (ionomycin activation, 3-point) it was below 10 µM.
In the case of `CNC(=O)COc1cccc(Nc2ncc(F)c(Nc3ccc4c(n3)NCC(C)(C)O4)n2)c1` [Compound 1053, N4-(3,4-Dihydro-2,2-dimethyl-4H-5-pyrid[1,4]oxazin-6-yl)-5-fluoro-N2-[3-(N-methylamino)carbonylmethyleneoxyphenyl]-2,4-pyrimidinediamine], the IC50 in assay [1] (setting [3]) is below 10 µM; in assay [1] (setting [4]), below 10 µM; in assay [2] (ionomycin activation, 3-point), above 10 µM.
For the compound `CNC(=O)c1ccc(Nc2ncc(F)c(Nc3ccc4c(n3)NC(=O)C(C)(C)O4)n2)cc1Cl` [Compound 1054, N2-[3-Chloro-4-(N-methylamino)carbonylphenyl]-N4-(2,2-dimethyl-3-oxo-4H-5-pyrid[1,4]oxazin-6-yl)-5-fluoro-2,4-pyrimidinediamine], the IC50 in assay [1] (setting [3]) was below 10 µM; in assay [1] (setting [4]), below 10 µM; in assay [2] (ionomycin activation, 3-point), above 10 µM.
`CC1(C)Oc2ccc(Nc3nc(Nc4ccc5c(c4)OCCO5)ncc3F)nc2NC1=O` [Compound 1055, N4-(2,2-Dimethyl-3-oxo-4H-5-pyrid[1,4]oxazin-6-yl)-N2-(3,4-ethylenedioxyphenyl)-5-fluoro-2,4-pyrimidinediamine]: the IC50 in assay [1] (setting [3]) is below 10 µM; in assay [1] (setting [4]) it was below 10 µM; in assay [2] (ionomycin activation, 3-point), above 10 µM.
As to `Cn1ncc2ccc(Nc3ncc(F)c(Nc4ccc5c(n4)NC(=O)C(C)(C)O5)n3)cc21` [Compound 1057, N4-(2,2-Dimethyl-3-oxo-4H-5-pyrid[1,4]oxazin-6-yl)-5-fluoro-N2-[1-methylindazol-6-yl]-2,4-pyrimidinediamine p-Toluenesulfonic Acid Salt], the IC50 in assay [1] (setting [3]) was below 10 µM; in assay [1] (setting [4]), below 10 µM; in assay [2] (ionomycin activation, 3-point) it was above 10 µM.
For the compound `C[C@@H]1Oc2ccc(Nc3nc(Nc4cc(C(C)(C)C)[nH]n4)ncc3F)nc2NC1=O` [Compound 1092, (S)—N2-(5-tert-Butyl-1H-pyrazol-3-yl)-5-fluoro-N4-(2-methyl-3-oxo-2H,4H-5-pyrid[1,4]oxazin-6-yl)-2,4-pyrimidinediamine], the IC50 in assay [1] (setting [3]) is below 10 µM; in assay [1] (setting [4]), below 10 µM; in assay [2] (ionomycin activation, 3-point), above 10 µM.
As for `Fc1cnc(Cl)nc1Nc1ccc2c(n1)NCCO2` [Compound 1117, 2-Chloro-5-fluoro-N4-(3,4-dihydro-2H,4H-5-pyrid[1,4]oxazin-6-yl)-4-pyrimidineamine], the IC50 in assay [1] (setting [3]) was above 10 µM; in assay [2] (ionomycin activation, 3-point), above 10 µM.
In the case of `Fc1cnc(Nc2ccc(N3CCOCC3)cc2)nc1Nc1ccc2c(n1)NCCO2` [Compound 1128, N4-(3,4-Dihydro-2H,4H-5-pyrid[1,4]oxazin-6-yl)-5-fluoro-N2-(4-morpholinophenyl)-2,4-pyrimidinediamine], the IC50 was below 10 µM in assay [1] (setting [4]) and above 10 µM in assay [2] (ionomycin activation, 3-point).
For `CN1CCN(c2ccc(Nc3ncc(F)c(Nc4ccc5c(n4)NCCO5)n3)cc2)CC1` [Compound 1141, N4-(3,4-Dihydro-2H,4H-5-pyrid[1,4]oxazin-6-yl)-5-fluoro-N2-[4-(4-methylpiperazino)phenyl]-2,4-pyrimidinediamine], the IC50 is below 10 µM in assay [1] (setting [3]); below 10 µM in assay [1] (setting [4]); above 10 µM in assay [2] (ionomycin activation, 3-point).
Turning to `CN1CCN(c2cccc(Nc3ncc(F)c(Nc4ccc5c(n4)NCCO5)n3)c2)CC1` [Compound 1142, N4-(3,4-Dihydro-2H,4H-5-pyrid[1,4]oxazin-6-yl)-5-fluoro-N2-[3-(4-methylpiperazino)phenyl]-2,4-pyrimidinediamine], the IC50 is below 10 µM in assay [1] (setting [5]), below 10 µM in assay [1] (setting [6]) and above 10 µM in assay [2] (setting [7]).
On to `Fc1cnc(Nc2cccc(-c3ncco3)c2)nc1Nc1ccc2c(n1)NCCO2` [Compound 1143, N4-(3,4-Dihydro-2H,4H-5-pyrid[1,4]oxazin-6-yl)-5-fluoro-N2-[3-(oxazol-2-yl)phenyl]-2,4-pyrimidinediamine], for which the IC50 in assay [1] (setting [5]) is below 10 µM; in assay [1] (setting [6]), below 10 µM; in assay [2] (setting [7]), above 10 µM.
Turning to `COc1ccc(Nc2ncc(F)c(Nc3ccc4c(n3)NCCO4)n2)cc1Cl` [Compound 1146, N2-(3-Chloro-4-methoxyphenyl)-N4-(3,4-dihydro-2H,4H-5-pyrid[1,4]oxazin-6-yl)-5-fluoro-2,4-pyrimidinediamine], the IC50 in assay [1] (setting [5]) is below 10 µM; in assay [2] (setting [7]), above 10 µM.
In the case of `COC(=O)C=NC(=O)c1ccc(Nc2ncc(F)c(Nc3ccc4c(c3)NC(=O)[C@H](C)O4)n2)cc1` [Compound 1271, (S)-5-Fluoro-N2-[4-(N-methoxycarbonylmethyleneamino)carbonylphenyl]-N4-(2-methyl-3-oxo-2H,4H-benz[1,4]oxazin-6-yl)-2,4-pyrimidinediamine], the IC50 is below 10 µM in assay [1] (setting [8]) and above 10 µM in assay [2] (setting [9]).
Consider `COC(=O)C=NC(=O)c1ccc(Nc2ncc(F)c(Nc3ccc4c(c3)NC(=O)[C@@H](C)O4)n2)cc1` [Compound 1272, (R)-5-Fluoro-N2-[4-(N-methoxycarbonylmethyleneamino)carbonylphenyl]-N4-(2-methyl-3-oxo-2H,4H-benz[1,4]oxazin-6-yl)-2,4-pyrimidinediamine], for which the IC50 in assay [1] (setting [8]) is below 10 µM; in assay [2] (setting [9]), above 10 µM.
